Structures can show the parent of a compound that is named as a salt.

One may read the EC50 as the concentration giving half of the maximal effect.

The target in this assay is human activated kallikrein enzyme (Homo sapiens, UniProt P03952). Briefly: Inhibition of human activated kallikrein enzyme, fluorogenic peptide substrate assay (500 pM enzyme format). It is filed as biochemical. The note with it: 500 pM activated kallikrein, 300 μM PFR-AMC substrate, 30 min preincubation, 10 min reaction, room temperature; read-out: Primary Dose Response Assay: Average EC50. The procedure: Compounds were evaluated for inhibition of the human activated kallikrein enzyme in two formats of an assay employing a fluorogenic peptide substrate. In one assay format, the concentrations of reagents were as follows: 20 mM Tris pH 7.5, 1 mM EDTA, 150 mM sodium chloride, 0.1% PEG-400, 0.1% Triton X-100, 500 pM activated kallikrein enzyme, 300 μM Pro-Phe-Arg-7-amido-4-methylcoumarin (PFR-AMC) substrate. Prior to reaction initiation with substrate, enzyme and inhibitors were preincubated for 30 min at room temperature. After initiation with substrate, reactions were incubated for 10 min at room temperature and fluorescence emission at 460 nm from 380 nm excitation measured with a microplate reader. In another assay format, the concentrations of reagents were as follows: 20 mM Tris pH 7.5, 1 mM EDTA, 150 mM sodium chloride, 0.1% PEG-400, 0.1% Triton X-100, 5 pM activated kallikrein enzyme, 300 uM PFR-AMC substrate. Prior to reaction initiation with substrate, enzyme and inhibitors were preincubated for 30 min at room temperature. After initiation with substrate, reactions were incubated for 18 hr at room temperature and fluorescence emission at 460 nm from 380 nm excitation measured with a microplate reader.
Chain of human activated kallikrein enzyme (P03952 391-638 limits assumed): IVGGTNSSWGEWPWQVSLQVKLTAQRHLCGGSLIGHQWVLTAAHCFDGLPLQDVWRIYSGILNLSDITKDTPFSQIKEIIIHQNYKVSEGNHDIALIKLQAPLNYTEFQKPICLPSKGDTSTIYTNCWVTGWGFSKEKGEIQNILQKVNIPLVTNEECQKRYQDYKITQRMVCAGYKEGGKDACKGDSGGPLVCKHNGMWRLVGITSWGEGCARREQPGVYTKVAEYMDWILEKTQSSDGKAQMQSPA
Chain of human activated kallikrein enzyme (P03952 20-390 partner limits assumed): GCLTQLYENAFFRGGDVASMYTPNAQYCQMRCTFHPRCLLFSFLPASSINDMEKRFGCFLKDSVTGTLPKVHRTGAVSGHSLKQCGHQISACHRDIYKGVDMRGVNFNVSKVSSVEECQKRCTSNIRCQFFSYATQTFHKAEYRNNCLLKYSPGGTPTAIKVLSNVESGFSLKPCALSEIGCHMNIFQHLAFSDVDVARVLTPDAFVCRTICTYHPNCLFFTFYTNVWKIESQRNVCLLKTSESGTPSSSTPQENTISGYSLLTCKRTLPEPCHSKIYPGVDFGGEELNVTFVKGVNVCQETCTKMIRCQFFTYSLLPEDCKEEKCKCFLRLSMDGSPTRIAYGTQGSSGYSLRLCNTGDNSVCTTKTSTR
Table 1 provides the results of the assay in the format with 500 pM activated kallikrein assay. For the compounds listed in Table 1, the EC50 values are reported according to the following ranges: A≤5.0 nM; 5.0 nM<B≤50 nM; 50 nM<C≤500 nM; 500 nM<D≤9000 nM; 9000 nM<E.
For `O=C(Cc1ncn2ccc(Cl)cc12)Nc1cc(Cc2cn3cc(C4CC4)ccc3n2)ncn1` [Example 57, 2-(7-chloroimidazo[1,5-a]pyridin-1-yl)-N-(6-((6-cyclopropylimidazo[1,2-a]pyridin-2-yl)methyl)pyrimidin-4-yl)acetamide formic acid salt], the EC50 is at most 5 nM.

For `COc1ccnc(CC(=O)Nc2cc(NCc3cn4cc(C5CC5)cc(N5CCCC5=O)c4n3)ccn2)c1F` [Example 24, N-(4-(((6-cyclopropyl-8-(2-oxopyrrolidin-1-yl)imidazo[1,2-a]pyridin-2-yl)methyl)amino)pyridin-2-yl)-2-(3-fluoro-4-methoxypyridin-2-yl)acetamide], the EC50 fell in the range of 5 to 50 nM.

On to `CCOC(=O)NC(=N)c1cc(C)c(CNc2cc(OCc3cn4cc(C5CC5)ccc4n3)nc(C(=O)OCC)n2)c(C)c1` [Example 86, ethyl 4-((6-cyclopropylimidazo[1,2-a]pyridin-2-yl)methoxy)-6-(4-(N-(ethoxycarbonyl)carbamimidoyl)-2,6-dimethylbenzylamino)pyrimidine-2-carboxylate], for which the EC50 lay within 50 to 500 nM.

Regarding `CC(C)(C(=O)Nc1cc(NCc2cn3cc(C4CC4)ccc3n2)ncn1)c1ncn2ccc(Cl)cc12` [Example 5, 2-(7-chloroimidazo[1,5-a]pyridin-1-yl)-N-(6-(((6-cyclopropylimidazo[1,2-a]pyridin-2-yl)methyl)amino)pyrimidin-4-yl)-2-methylpropanamide], the EC50 was in the range of 500 to 9000 nM.

As for `COc1ccc(-n2cnnn2)c(CC(=O)Nc2cc(NCc3cn4cc(C5CC5)ccc4n3)ncn2)c1F` [Example 37], the EC50 was at most 5 nM.

Turning to `Cc1cc(C(=N)NO)cc(C)c1CNc1cc(OCc2cn3cc(C4CC4)ccc3n2)nc(C(=O)O)n1` [Example 84, 4-((6-cyclopropylimidazo[1,2-a]pyridin-2-yl)methoxy)-6-((4-(N-hydroxycarbamimidoyl)-2,6-dimethylbenzyl)amino)pyrimidine-2-carboxylic acid], the 50% effective concentration (EC50) was in the range of 5 to 50 nM.

For the compound `N#Cc1ccc(Cl)cc1CC(=O)Nc1cc(NCc2cn3cc(C4CC4)ccc3n2)ncn1` [Example 2, 2-(5-chloro-2-cyanophenyl)-N-(6-(((6-cyclopropylimidazo[1,2-a]pyridin-2-yl)methyl)amino)pyrimidin-4-yl)acetamide], the EC50 fell in the range of 500 to 9000 nM.

In the case of `CN(Cc1cn2cc(C3CC3)cc(N3CCCC3=O)c2n1)c1cc(NC(=O)Cc2ncn3ccc(Cl)cc23)ncn1` [Example 18], the EC50 is at most 5 nM.

As for `O=C(Cc1nncc2ccc(Cl)cc12)Nc1cc(NCc2cn3cc(C4CC4)ccc3n2)ncn1` [Example 105, 2-(7-chlorophthalazin-1-yl)-N-(6-(((6-cyclopropylimidazo[1,2-a]pyridin-2-yl)methyl)amino)pyrimidin-4-yl)acetamide], the EC50 was in the range of 5 to 50 nM.

Turning to `O=C(Cc1ncn2ccc(Cl)cc12)Nc1cc(NCc2cn3cc(C4CC4)ccc3n2)ccn1` [Example 25, 2-(7-chloroimidazo[1,5-a]pyridin-1-yl)-N-(4-(((6-cyclopropylimidazo[1,2-a]pyridin-2-yl)methyl)amino)pyridin-2-yl)acetamide], the half-maximal effective concentration (EC50) was at most 5 nM.

Regarding `Cc1cc(C(=N)N)cc(C)c1CNc1cc(OCc2cn3cc(C4CC4)ccc3n2)ncn1` [Example 72, 4-(((6-((6-cyclopropylimidazo[1,2-a]pyridin-2-yl)methoxy)pyrimidin-4-yl)amino)methyl)-3,5-dimethylbenzimidamide formic acid salt], the EC50 was at most 5 nM.

As to `COc1ccc(-n2cnnn2)c(CNc2cc(C(F)(F)c3cn4cc(C5CC5)ccc4n3)ncn2)c1F` [Example 62, 6-((6-cyclopropylimidazo[1,2-a]pyridin-2-yl)difluoromethyl)-N-(2-fluoro-3-methoxy-6-(1H-tetrazol-1-yl)benzyl)pyrimidin-4-amine], the EC50 fell in the range of 500 to 9000 nM.

With `O=C(Cc1cc(Cl)ccc1Br)Nc1cc(NCc2cn3cc(C4CC4)ccc3n2)ncn1` [Example 51, 2-(2-bromo-5-chlorophenyl)-N-(6-(((6-cyclopropylimidazo[1,2-a]pyridin-2-yl)methyl)amino)pyrimidin-4-yl)acetamide], the EC50 is over 9000 nM.

Regarding `O=C(Cc1ncn2ccc(Cl)cc12)Nc1ccnc(NCc2cn3cc(C4CC4)ccc3n2)n1` [Example 16, 2-(7-chloroimidazo[1,5-a]pyridin-1-yl)-N-(2-(((6-cyclopropylimidazo[1,2-a]pyridin-2-yl)methyl)amino)pyrimidin-4-yl)acetamide], the EC50 is at most 5 nM.

Turning to `O=C(Cc1cc(Cl)ccc1-n1cnnn1)Nc1cc(NCc2cn3cc(C4CC4)ccc3n2)ncn1` [Example 35, 2-(5-chloro-2-(1H-tetrazol-1-yl)phenyl)-N-(6-(((6-cyclopropylimidazo[1,2-a]pyridin-2-yl)methyl)amino)pyrimidin-4-yl)acetamide], the EC50 was 5 to 50 nM.

Consider `O=C(Cc1ncn2ccc(Cl)cc12)Nc1cc(NCc2cn3c(F)c(C4CC4)ccc3n2)ncn1` [Example 46, 2-(7-chloroimidazo[1,5-a]pyridin-1-yl)-N-(6-(((6-cyclopropyl-5-fluoro-imidazo[1,2-a]pyridin-2-yl)methyl)amino)pyrimidin-4-yl)acetamide], for which the EC50 was at most 5 nM.

Regarding `Cc1cc(C(=N)N)cc(C)c1CNc1cc(OCc2cn3cc(C4CC4)cc(CCC(=O)O)c3n2)ncn1` [Example 97, 3-(2-(((6-((4-carbamimidoyl-2,6-dimethylbenzyl)amino)pyrimidin-4-yl)oxy)methyl)-6-cyclopropylimidazo[1,2-a]pyridin-8-yl)propanoic acid], the concentration giving a half-maximal response (EC50) was at most 5 nM.

With `N#Cc1cc(C2CC2)cn2cc(COc3cc(NC(=O)Cc4ncn5ccc(Cl)cc45)ncn3)nc12` [Example 22, 2-(7-chloroimidazo[1,5-a]pyridin-1-yl)-N-(6-((8-cyano-6-cyclopropylimidazo[1,2-a]pyridin-2-yl)methoxy)pyrimidin-4-yl)acetamide], the half-maximal effective concentration (EC50) lay within 5 to 50 nM.

In the case of `Cc1cc(C(=N)NO)cc(C)c1CNc1cc(OCc2cn3cc(C4CC4)ccc3n2)ncn1` [Example 71, 4-(((6-((6-cyclopropylimidazo[1,2-a]pyridin-2-yl)methoxy)pyrimidin-4-yl)amino)methyl)-N-hydroxy-3,5-dimethylbenzimidamide], the concentration giving a half-maximal response (EC50) was in the range of 5 to 50 nM.

Consider `Cc1cc(N)nc(C)c1CNc1cc(NCc2cn3cc(C4CC4)ccc3n2)ncn1` [Example 111, N^4-((6-amino-2,4-dimethylpyridin-3-yl)methyl)-N^6-((6-cyclopropylimidazo[1,2-a]pyridin-2-yl)methyl)pyrimidine-4,6-diamine], for which the EC50 is at most 5 nM.

Turning to `CCOC(=O)c1nc(NCc2cn3cc(C4CC4)ccc3n2)cc(NC(=O)Cc2ncn3ccc(Cl)cc23)n1` [Example 20, ethyl 4-(2-(7-chloroimidazo[1,5-a]pyridin-1-yl)acetamido)-6-(((6-cyclopropylimidazo[1,2-a]pyridin-2-yl)methyl)amino)pyrimidine-2-carboxylate], the half-maximal effective concentration (EC50) was at most 5 nM.

In the case of `Nc1nccc2c1CCC2Nc1cc(NCc2cn3cc(C4CC4)ccc3n2)ncn1` (stereo not drawn) [Example 56, N^5-(6-(((6-cyclopropylimidazo[1,2-a]pyridin-2-yl)methyl)amino)pyrimidin-4-yl)-6,7-dihydro-5H-cyclopenta[c]pyridine-1,5-diamine], the concentration for a half-maximal effect (EC50) was 5 to 50 nM.

On to `N=S(=O)(Nc1cc(NCc2cn3cc(C4CC4)ccc3n2)ncn1)C1CC1c1cccc(Cl)c1` (racemic) [Example 142, (SR,1SR,2RS)-2-(3-chlorophenyl)-N-(6-(((6-cyclopropylimidazo[1,2-a]pyridin-2-yl)methyl)amino)pyrimidin-4-yl)cyclopropane-1-sulfonimidamide], for which the half-maximal effective concentration (EC50) lay in the range of 500 to 9000 nM.

Consider `O=C(Cn1cc(Cl)ccc1=O)Nc1cc(NCc2cn3cc(C4CC4)ccc3n2)ncn1` [Example 119, 2-(5-chloro-2-oxopyridin-1 (2H)-yl)-N-(6-(((6-cyclopropylimidazo[1,2-a]pyridin-2-yl)methyl)amino)pyrimidin-4-yl)acetamide], for which the concentration for a half-maximal effect (EC50) was over 9000 nM.

Regarding `O=C(Cn1cnc2ccc(Cl)cc21)Nc1cc(NCc2cn3cc(C4CC4)ccc3n2)ccn1` [Example 28, 2-(6-chloro-1H-benzo[d]imidazol-1-yl)-N-(4-(((6-cyclopropylimidazo[1,2-a]pyridin-2-yl)methyl)amino)pyridin-2-yl)acetamide], the concentration giving a half-maximal response (EC50) fell in the range of 500 to 9000 nM.

Take `O=C(Cc1ncn2ccc(Cl)cc12)Nc1cc(NCc2cn3cc(C4CC4)ccc3n2)nc(C(=O)O)n1` [Example 21, 4-(2-(7-chloroimidazo[1,5-a]pyridin-1-yl)acetamido)-6-(((6-cyclopropylimidazo[1,2-a]pyridin-2-yl)methyl)amino)pyrimidine-2-carboxylic acid]: the half-maximal effective concentration (EC50) is at most 5 nM.

With `CCCCCCOC(=O)NC(=N)c1cc(C)c(CNc2cc(OCc3cn4cc(C5CC5)ccc4n3)nc(C(=O)OCC)n2)c(C)c1` [Example 87, ethyl 4-((6-cyclopropylimidazo[1,2-a]pyridin-2-yl)methoxy)-6-(4-(N-(hexyloxycarbonyl)carbamimidoyl)-2,6-dimethylbenzylamino)pyrimidine-2-carboxylate], the concentration for a half-maximal effect (EC50) was in the range of 50 to 500 nM.

Source of the values: patent publication US20240382482A1, “PLASMA KALLIKREIN INHIBITORS” (TAKEDA PHARMACEUTICAL COMPANY LIMITED, priority 2021, published 2024).
